Test results taken from ChEMBL document CHEMBL1142081, “Evaluation of the in vivo activity of tribendimidine against Schistosoma mansoni, Fasciola hepatica, Clonorchis sinensis, and Opisthorchis viverrini” (2007).
Calls of active or inactive are those of the source. The calls are words filed in the database; no cut-off is given here.

What was measured:
Schistosoma mansoni [1] = assay: Reduction of total worm burden in Schistosoma mansoni Liberian infection NMRI mouse at 800 mg/kg, po relative to control; format: functional; set-up: scale not given: the % may be the effect or the level left
Fasciola hepatica [2] = assay: Reduction of worm burden in Fasciola hepatica infected Wistar rat at 800 mg/kg, po relative to control; format: functional; set-up: scale not given: the % may be the effect or the level left
[3] = Reduction of worm burden in Clonorchis sinensis infected Wistar rat at 150 mg/kg, po relative to control; format: functional; set-up: scale not given: the % may be the effect or the level left
Fasciola hepatica [4] = assay: Effect on Fasciola hepatica infected Wistar rat assessed as infection cured rats at 800 mg/kg, po relative to control; format: functional, organism-based; set-up: dose 800 mg/kg
[5] = Reduction of worm burden in Clonorchis sinensis infected Wistar rat at 75 mg/kg, po relative to control; format: functional; set-up: scale not given: the % may be the effect or the level left
Schistosoma mansoni [6] = assay: Reduction of female worm burden in Schistosoma mansoni Liberian infected NMRI mouse at 800 mg/kg, po relative to control; format: functional; set-up: scale not given: the % may be the effect or the level left
Schistosoma mansoni [7] = assay: Effect on Schistosoma mansoni Liberian infected NMRI mouse assessed as infection cured mice at 400 mg/kg, po relative to control
[8] = Reduction of worm burden in Opisthorchis viverrini infected Syrian Gold hamster at 200 mg/kg, po relative to control; format: functional; set-up: scale not given: the % may be the effect or the level left
[9] = Reduction of worm burden in Opisthorchis viverrini infected Syrian Gold hamster at 400 mg/kg, po relative to control; format: functional; set-up: scale not given: the % may be the effect or the level left

## C/C(=N/c1ccc(/N=C/c2ccc(/C=N/c3ccc(/N=C(/C)N(C)C)cc3)cc2)cc1)N(C)C [TRIBENDIMIDINE]
Schistosoma mansoni [1]
  Activity: 0%
Fasciola hepatica [2]
  Activity: 0%
[3]
  Activity: 99.1%
Fasciola hepatica [4]
  Activity: Active
[5]
  Activity: 68.9%
Schistosoma mansoni [6]
  Activity: 0%
Schistosoma mansoni [7]
  Activity: Active
[8]
  Activity: 61.4%
[9]
  Activity: 95.7%
